Experiment: recombinant UMI read abundance after kanamycin selection (control-corrected) (log10(CPM+1)); higher = more efficient recombination; extreme values may be limits of the assay; sequences stand for … in AGTGCAGAGAAAATCGGCCAGTTTTCTCTGCCTGCAGTCCGCATGCCGTGGGACCCCTTGGGTTCTAACCTGTTGCCTAGATTTATGCAGCGGACTGCCTTTCTCCCAAAGTGATAAACCGG…AGGTTGGTTTCACT; site = the 11-nt donor
Protocol: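 Pooled E. coli donor-specificity screen for the IS621 bridge recombinase. Each library member carries a reprogrammed 11-nt donor and a full-length LE bridge RNA expressed in cis from the natural promoter, with a paired donor-binding loop (8-nt LDG + 4-nt RDG) and a target-binding loop fixed to T5. It is co-electroporated with a T5 target plasmid; recombinase is induced with 0.07 mM IPTG and recombinants are selected on kanamycin. UMIs are counted as CPM, averaged over two biological replicates and corrected by the unselected control. Molecule = full bridge RNA written as DNA, built from the T5 scaffold: LDG = donor specificity nt 1-8, RDG = reverse complement of nt 8-11.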
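Further: IS621 bridge recombinase in Escherichia coli cells against a fixed T5 target plasmid.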

In order of rising “recombinant UMI read abundance (log10)” value:
1. ACTGTATCATGGACCGGTTTTCCCGGTAATCCGTATTTGCC (site ACAGTATCTTG)  0
2. ACTTCTTCATGGACCGGTTTTCCCGGTAATCCGTATTTGTC (site ACTTCTTCTGA)  0
3. AGAAAAGCATGGACCGGTTTTCCCGGTAATCCGTATTTGCT (site AGAAATGCTAG)  0
4. AGAAAGACATGGACCGGTTTTCCCGGTAATCCGTATTTGTA (site AGGAAGACTTG)  0
5. AGAAAGCCATGGACCGGTTTTCCCGGTAATCCGTATTTGCT (site AGAAAGACTAG)  0
6. AGAAAGCCATGGACCGGTTTTCCCGGTAATCCGTATTTGCT (site AGAAAGCCTAG)  0
7. AGAAAGCCATGGACCGGTTTTCCCGGTAATCCGTATTTGCT (site AGAAAGGCTAG)  0
8. AGAACGGCATGGACCGGTTTTCCCGGTAATCCGTATTTGCT (site AGAAGGGCTAG)  0
9. AGAACGGCATGGACCGGTTTTCCCGGTAATCCGTATTTGCT (site AGAATGGCTAG)  0
10. AGAACTACATGGACCGGTTTTCCCGGTAATCCGTATTTGAC (site AGCACTACTGT)  0
11. AGACATCCATGGACCGGTTTTCCCGGTAATCCGTATTTGAC (site AAACATCCTGT)  0
12. AGACATCCATGGACCGGTTTTCCCGGTAATCCGTATTTGAC (site AGACATCCTGT)  0
13. AGACATCCATGGACCGGTTTTCCCGGTAATCCGTATTTGAC (site ATACATCCTGT)  0
14. AGACGAACATGGACCGGTTTTCCCGGTAATCCGTATTTGTC (site AAACGAACTGA)  0
15. AGACGAACATGGACCGGTTTTCCCGGTAATCCGTATTTGTC (site ACACGAACTGA)  0
16. ACTCGAACATGGACCGGTTTTCCCGGTAATCCGTATTTGAG (site ACTAGAACTCT)  0.00419
17. ACTCGAACATGGACCGGTTTTCCCGGTAATCCGTATTTGAG (site ACTTGAACTCT)  0.00429
18. ACTAGTTCATGGACCGGTTTTCCCGGTAATCCGTATTTGGT (site ACTAGTGCTAC)  0.00523
19. ACTCCAGCATGGACCGGTTTTCCCGGTAATCCGTATTTGCG (site ACTCCAGCTCG)  0.0064
20. ACTCGGCCATGGACCGGTTTTCCCGGTAATCCGTATTTGGT (site ACTCGGCCTAC)  0.00855
21. AGAACAACATGGACCGGTTTTCCCGGTAATCCGTATTTGCT (site TTTGTCCCTCC)  0.00956
22. ACTCGAACATGGACCGGTTTTCCCGGTAATCCGTATTTGAG (site ACTGGAACTCT)  0.00958
23. AGAAGGGCATGGACCGGTTTTCCCGGTAATCCGTATTTGCT (site AGAACGGCTAG)  0.0144
24. ACTGCACCATGGACCGGTTTTCCCGGTAATCCGTATTTGAG (site ACTGCACCTCT)  0.0235
25. ACTCTCCCATGGACCGGTTTTCCCGGTAATCCGTATTTGGA (site ACTCTCCCTTC)  0.0237
26. ACTAGTTCATGGACCGGTTTTCCCGGTAATCCGTATTTGGT (site ACTAGTCCTAC)  0.0335
27. ACTGAGACATGGACCGGTTTTCCCGGTAATCCGTATTTGGT (site AGTGAGACTAC)  0.0694
28. ACTGAGACATGGACCGGTTTTCCCGGTAATCCGTATTTGGT (site AATGAGACTAC)  0.158
29. ACTGCTACATGGACCGGTTTTCCCGGTAATCCGTATTTGGT (site ACTGCTACTAC)  0.194
30. AGACATCCATGGACCGGTTTTCCCGGTAATCCGTATTTGAC (site ACACATCCTGT)  0.237
31. AGAAGGGCATGGACCGGTTTTCCCGGTAATCCGTATTTGCT (site AGAATGGCTAG)  0.25
32. ACTAGTTCATGGACCGGTTTTCCCGGTAATCCGTATTTGGT (site ACTAGTACTAC)  0.293
33. AGAAAAGCATGGACCGGTTTTCCCGGTAATCCGTATTTGCT (site AGAAACGCTAG)  0.464
34. ACTGAGACATGGACCGGTTTTCCCGGTAATCCGTATTTGGT (site ATTGAGACTAC)  0.541
35. AGAACCCCATGGACCGGTTTTCCCGGTAATCCGTATTTGGT (site AGAACCCCTAC)  0.545
36. ACTCCTGCATGGACCGGTTTTCCCGGTAATCCGTATTTGAC (site ACTCCTGCTGT)  0.671
37. AGACGAACATGGACCGGTTTTCCCGGTAATCCGTATTTGTC (site ATACGAACTGA)  0.731
38. ACTTGCTCATGGACCGGTTTTCCCGGTAATCCGTATTTGTT (site ACTTGCTCTAA)  0.824
39. AGAACTACATGGACCGGTTTTCCCGGTAATCCGTATTTGAC (site AGGACTACTGT)  0.849
40. ACTAGTGCATGGACCGGTTTTCCCGGTAATCCGTATTTGGT (site TCTAGTGCTAC)  0.86
41. AGAACGGCATGGACCGGTTTTCCCGGTAATCCGTATTTGCT (site AGAAAGGCTAG)  1.08
42. ACTCGAACATGGACCGGTTTTCCCGGTAATCCGTATTTGAG (site ACTCGAACTCT)  1.16
43. AGAAGTCCATGGACCGGTTTTCCCGGTAATCCGTATTTGAA (site AGAAGTCCTTT)  1.33
44. AGACGAACATGGACCGGTTTTCCCGGTAATCCGTATTTGTC (site AGACGAACTGA)  1.35
45. AGAACTACATGGACCGGTTTTCCCGGTAATCCGTATTTGAC (site AGTACTACTGT)  1.37
46. AGAAAAGCATGGACCGGTTTTCCCGGTAATCCGTATTTGCT (site AGAAAGGCTAG)  1.38
47. ACTGAGACATGGACCGGTTTTCCCGGTAATCCGTATTTGGT (site ACTGAGACTAC)  1.53
48. AGAACAACATGGACCGGTTTTCCCGGTAATCCGTATTTGAT (site AGAACAACTAT)  1.63
49. AGAAGGGCATGGACCGGTTTTCCCGGTAATCCGTATTTGAG (site AGAAGGGCTCT)  1.64
50. AGAAGGGCATGGACCGGTTTTCCCGGTAATCCGTATTTGCT (site AGAAAGGCTAG)  1.73
51. ACTTCTGCATGGACCGGTTTTCCCGGTAATCCGTATTTGCC (site ACTTCTGCTGG)  1.76
52. AGAAGAGCATGGACCGGTTTTCCCGGTAATCCGTATTTGGA (site AGAAGAGCTTC)  1.81
53. ACTTCGACATGGACCGGTTTTCCCGGTAATCCGTATTTGCA (site ACTTCGACTTG)  1.84
54. ACTAGTTCATGGACCGGTTTTCCCGGTAATCCGTATTTGGT (site ACTAGTTCTAC)  1.89
55. ACTGATGCATGGACCGGTTTTCCCGGTAATCCGTATTTGAC (site ACTGATGCTGT)  2.08
56. AGAAAAGCATGGACCGGTTTTCCCGGTAATCCGTATTTGCT (site AGAAAAGCTAG)  2.12
57. AGAACTACATGGACCGGTTTTCCCGGTAATCCGTATTTGAC (site AGAACTACTGT)  2.15
58. AGAAAGCCATGGACCGGTTTTCCCGGTAATCCGTATTTGCT (site AGAAAGTCTAG)  2.3
59. AGAACATCATGGACCGGTTTTCCCGGTAATCCGTATTTGCG (site AGAACATCTCG)  2.3
60. AGACGGGCATGGACCGGTTTTCCCGGTAATCCGTATTTGTC (site AGACGGGCTGA)  2.3
61. AGAACGGCATGGACCGGTTTTCCCGGTAATCCGTATTTGCT (site AGAACGGCTAG)  2.35
62. ACTGAAGCATGGACCGGTTTTCCCGGTAATCCGTATTTGTA (site ACTGAAGCTTA)  2.5
63. AGAAAGACATGGACCGGTTTTCCCGGTAATCCGTATTTGTA (site AGAAAGACTTA)  2.51
64. AGACAATCATGGACCGGTTTTCCCGGTAATCCGTATTTGTA (site AGACAATCTTA)  2.63
65. AGAAGGGCATGGACCGGTTTTCCCGGTAATCCGTATTTGCT (site AGAAGGGCTAG)  2.64
66. AGACACTCATGGACCGGTTTTCCCGGTAATCCGTATTTGGT (site AGACACTCTAC)  2.78
67. ACTTACTCATGGACCGGTTTTCCCGGTAATCCGTATTTGAC (site ACTTACTCTGT)  2.81
68. AGAGCATCATGGACCGGTTTTCCCGGTAATCCGTATTTGGT (site AGAGCATCTAC)  2.89
69. ACTGTATCATGGACCGGTTTTCCCGGTAATCCGTATTTGCC (site ACTGTATCTGG)  2.92
70. AGACAGTCATGGACCGGTTTTCCCGGTAATCCGTATTTGAT (site AGACAGTCTAT)  2.94
71. AGACAATCATGGACCGGTTTTCCCGGTAATCCGTATTTGAG (site AGACAATCTCT)  2.98
72. AGACATGCATGGACCGGTTTTCCCGGTAATCCGTATTTGCC (site AGACATGCTGG)  3.01
